Data: article doi:10.1101/2025.02.26.640323, “Aggregation-Dependent Epitope Sequence and Modification Fingerprints of Anti-Aβ Antibodies” (bioRxiv, 2025)
“Also recorded” adds a separate entry of the source.

Columns and labels:
AβpE3-x = experiment: PTM-Aβ microarray, pE3; assay type: binding, human; conditions: Donanemabbs 0,0012μg/mL, 2–48, Aβ-pE3, IC16 […], vs Aβ3-x with non-cyclized Glu
Excerpt: Specific PTMs might be associated with different stages of AD progression and severity, offering potential biomarkers for diagnosis and prognosis. Targeting PTMs represents a potential therapeutic strategy to prevent Aβ aggregation and neurotoxicity, thereby slowing disease progression. […] Therefore, a selected group of PTM-carrying Aβ peptides (PTM-Aβ) were incorporated into the Aβ chip to explore the potential binding preference of selected Aβ-Abs, under optimized concentrations (Figure 3). The antibodies were tested with both PTM-Aβ and the corresponding unmodified variants to provide a head-to-head comparison. This screening was performed in the presence of Aβ phosphorylated at positions Ser(8) or Ser(26), N-terminal pE at position 3, racemization/isomerization of Asp at position 1, and unmodified N-terminal variants. The dataset is divided into sections (Figure 3 a–f) for enhanced visualization, where each antibody was screened simultaneously against all peptides to locate their epitope preferences. […] A set of antibodies without reported PTM preference was applied here as controls (refer to Table 1), namely 11H3, 101–1-1, IC16, 82E1 and 3D6.
Figure 3. […] Blue and red shades indicate the binding strength over the related arrayed […] modified peptide shown on top and cognate anti-Aβ antibody to the left. […]

[1] = test system: amyloid precursor protein (APP770) residues 649–722; experiment: Peptide microarray epitope pre-screening (overlapping 15-mers); assay type: binding, human; conditions: 0.5–1 μg/mL antibody
Method: Information regarding binding epitopes and /or immunogens for most of the tested Aβ-Abs has been published and is summarized in Table 1. However, the binding epitope information was derived from varying methodologies. To provide an initial side-by-side comparison we pre-screened all of the listed Aβ-Abs in array format using copies of peptide libraries and standard antibody concentrations of 0.5–1 μg/mL (Figure 1a). The library comprised the amyloid precursor protein (APP770) residues 649–722, corresponding to the canonical Aβ1–42 amino acid sequence with additional 23 amino terminal and 9 carboxy terminal residues. […] For optimal signal to noise ratios and ideal selectivity profiles on the microarrays, the Aβ-Ab concentrations were adjusted for 3D6, 82E1, 11H3, 80C2 and 7H3D6 (Figure 1 – figure- supplement 1) and (Appendix 1–7). […] Specifically, Donanemabbs, 2–48 and Aβ-pE3 were raised against AβpE3-x (Table 1) and were expected to show preference for Aβ peptides starting with a pE(3).
Figure 1. Microarray workflow and Aβ-Ab epitope pre-screening. (a) Schematic of the microarray workflow. The library comprised the amyloid precursor protein (APP) residues 649–722 (APP770 numbering), corresponding to Aβ residues −23 to 51, as a library of 15-mer peptides overlapping by 14AAs, copied in dozens, and probed for Aβ-Abs binding followed by analysis in MARTin. (b) The epitope screening binding data are summarized as a heatmap. Blue and red shades indicate the relative binding strength of the related arrayed peptides to the left and cognate Aβ-Ab on top. The blue – red scale is visualizing the normalized binding intensity for each antibody individually. The applied antibody concentrations ranged between 0.5–1 μg/mL.
The μSPOT assay was performed as previously described. […] Peptide arrays were synthesized using MultiPep RSi robot (CEM GmbH, Kamp-Lintford, Germany) on cellulose discs containing Fmoc-β-Ala linkers. Natural amino acid building blocks were purchased from IRIS (IRIS Biotech GmbH, Marktredwitz, Germany). Special building blocks employed in this study such as isomers, stereoisomers, phosphorylation and pyroglutamination […] modifications are listed here: Fmoc-L-Ser(PO(OBzl)OH)-OH (Iris – FAA1423), L-Pyroglutamic acid pentachlorophenyl ester (Novabiochem - 8.54203), Fmoc-L-Asp-OtBu (Iris – FAA1356), Fmoc-D-Asp-OtBu (Carbosolutions – CC05095) and Fmoc-D-Asp(tBu)-OH (Iris – FAA1309). Synthesis was carried out by deprotecting the Fmoc-group using 20% piperidine in dimethylformamide (DMF). Peptide chains were elongated using a coupling solution consisting of amino acids (0.5M) with oxyma (1M) and DIC (1M) in DMF (1:1:1). Coupling steps were carried out 3 times (30min), followed by capping (4% acetic anhydride in DMF). Discs were transferred into 96 deep-well plates for the work-up.

[2] = test system: Aβ1–42 monomer, oligomer and fibril preparations; AβpE3–40; experiment: Bistris-SDS gradient PAGE/Western blot; assay type: binding; conditions: 4–12% Bistris SDS-PAGE
Method: No SPR-487B) (StressMarq biosciences, Victoria, BC, Canada). The samples for electrophoresis were prepared (starting from stock solutions) with final concentrations of 0.1 μg/μL) in LDS sample buffer (247.5 mM Tris-HCl, pH 8.5, 2% (w/v) lithium dodecyl sulfate (LDS), 10% (v/v) glycerol, 0.5 mM EDTA, 0.22 mM Brilliant Blue G250, 0.175 mM Phenol Red) and denatured by heating at 70°C for 10 min. […] The prechilled transfer buffer contained 25 mM Tris, 192 mM glycine, 20% (v/v) methanol and 0.0375 % Tween-20. After blotting, the membrane was washed for 10 min at room temperature in Tris-buffered saline (TBS) followed by blocking for 30 min with 5% powdered milk in TBS containing 0.1% Tween-20 (TBS-T). The blots were then incubated with primary antibodies in 5% milk in TBS-T over night at 4°C and washed 3 × for 10 min with TBS-T at room temperature. […] After 1 h incubation with the secondary antibodies, the blots were washed 3 × for 10 min with TBS-T and incubated for 5 min with ECL-Prime Western Blotting Detection Reagent (Cytiva Amersham, Little Chalfont, England). Images were recorded on a Vilber-Loumart Fusion SL blot imager. […] That way, the 4G8 reprobing signals were essentially added on top of the initial signals and background artifacts.

[3] = test system: synthetic Aβ peptide variants; experiment: Capillary isoelectric focusing (CIEF) immunoassay; assay type: binding
Method: Automated capillary isoelectric focusing immunoassays were performed with a Peggy-Sue system (ProteinSimple,San Jose, California, USA), essentially as previously described and [53].
In brief, synthetic Aβ peptide variants were separated by isoelectric focusing in microcapillaries followed by photochemical immobilization to the inner capillary walls and probing with the primary antibodies for 120 min. After 2 washes, the horseradish peroxidase conjugated secondary antibodies were loaded and incubated for 60 min. After two washing steps, a luminol/peroxide mix was loaded, and chemiluminescent signals were recorded. The data was analyzed with the Compass for SW software. The following secondary antibodies were used: Anti-human IgG Secondary HRP antibody (Protein Simple, catalog number 043–491), Goat-Anti-Mouse-HRP Secondary Antibody ProteinSimple, catalog number 040–655) and Peroxidase-conjugated Affini Pure Donkey Anti-Human IgG (H+L) (1:100 dilution) (Jackson ImmunoResearch Laboratories Inc., West Grove, PA, code number 709–035-149).

Substance: Donanemabbs: humanized monoclonal, biosimilar of Donanemab, Proteogenix (#PX-TA1549)
- selectivity for / binding to AβpE3-x (AβpE3-x): high selectivity for Aβ peptides starting with an N-terminal pE
- Array: epitope identified in this study on microarrays ([1]; Aβ residue numbers, 15-mer peptides overlapping by 14AAs on cellulose conjugates, chemiluminescence): 3–10
- binding in epitope pre-screening ([1]; unmodified Aβ-related 15-mers, generic pre-screening conditions): detected Aβ(3-x) starting with non-cyclized Glu (3), Aβ(−3-x) as well as several other N-terminally elongated Aβ-related peptides and Aβ1-x; also recorded: clear signals with AβpE3-x and several other Aβ related peptides starting N-terminally of Glu(3), including Aβ1-x
- detection of AβpE3–40, Bistris Western blot [2]: detected multiple AβpE3–40 bands in the low Mwrange
- detection of HFIP-treated monomeric, oligomeric and fibrillar Aβ1–42 [2]: very faint signals
- signals with other N-terminal Aβ variants (CIEF and Bicine-Tris Western blot) [3]: no or very small signals
- preference of Aβ variant (CIEF and Bicine-Tris Western blot) ([3]; AβpE3–40 vs Aβ3–40): clear preference for the Aβ variant starting with the cyclized N-terminal pE; also recorded: high preference for pyroglutamate bearing pEAβ3–40
- Aβ variants detected on CIEF-immunoassay ([3]; Peggy Sue, chemiluminescence): detected AβpE3–40 and Aβ3–40
